# Laboratory results as given in ChEMBL document CHEMBL1201862, “PubChem BioAssay data set” (2004).
# Calls of active or inactive are those of the source. Rule as the data show it, for most assays here: actives have a measured EC50 and inactives only a lower limit.
# Columns and labels:
# [1] = protection from phage-mediated lysis, alamar blue read-out – E. coli UTI89, K1F phage, bacterial capsule biogenesis inhibitors (AID 488966); type: functional
# [2] = DRD fibroblast viability loss – cell-based, non-viral oncogenic, luminescence, dose response (AID 1934); type: functional; settings: Homo sapiens
# [3] = target: Luciferin 4-monooxygenase (Photinus pyralis, UniProt P08659); assay: inhibition of purified Photinus pyralis luciferase – biochemical, luminescence, dose response (AID 1891)
# Luciferin 4-monooxygenase, sequence (P08659 whole entry): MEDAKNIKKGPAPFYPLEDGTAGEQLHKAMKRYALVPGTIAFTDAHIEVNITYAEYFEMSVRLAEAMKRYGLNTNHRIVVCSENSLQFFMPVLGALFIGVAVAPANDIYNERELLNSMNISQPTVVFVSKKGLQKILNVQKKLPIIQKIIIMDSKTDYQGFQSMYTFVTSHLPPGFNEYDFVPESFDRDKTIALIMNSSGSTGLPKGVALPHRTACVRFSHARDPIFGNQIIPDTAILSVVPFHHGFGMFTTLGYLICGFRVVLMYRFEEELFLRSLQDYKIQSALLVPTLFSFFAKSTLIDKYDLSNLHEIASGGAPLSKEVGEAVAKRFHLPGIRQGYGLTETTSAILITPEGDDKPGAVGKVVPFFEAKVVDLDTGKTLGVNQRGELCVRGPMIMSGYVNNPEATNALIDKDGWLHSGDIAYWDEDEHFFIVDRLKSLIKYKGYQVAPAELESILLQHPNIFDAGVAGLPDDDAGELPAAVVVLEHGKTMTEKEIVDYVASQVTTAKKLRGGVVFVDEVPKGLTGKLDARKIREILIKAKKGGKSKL
# [4] = alpha-synuclein stem-loop luciferase translation blockers – H4 neuroglioma cells, luminescence, confirmation (AID 1988); type: functional, cell-based
# [5] = Luminescence Cell-Based Dose Confirmation HTS to Identify Inhibitors of Platelet Dense Granule Release. [Related pubchem assays: 1663 (Primary HTS), 1678 (Summary of Project)]; type: functional
# [6] = ADP-Glo luciferase signal interference – biochemical, luminescence, cherry-picked samples, set 2, artefact control for CDK5 inhibitor project, dose response (AID 504546); type: functional, cell-based
# [7] = luciferase reporter signal suppression in cells – H4 neuroglioma cells, luminescence, dose response (AID 1990); type: functional, cell-based
# [8] = target: CAAX prenyl protease 2 (Homo sapiens, UniProt Q9Y256); assay: inhibition of Ras-converting CAAX protease Rce1 – biochemical, yeast membranes, quenched-peptide fluorescence, cherry-pick, dose response (AID 588849)
# CAAX prenyl protease 2 (Homo sapiens, UniProt Q9Y256), sequence (Q9Y256 whole entry): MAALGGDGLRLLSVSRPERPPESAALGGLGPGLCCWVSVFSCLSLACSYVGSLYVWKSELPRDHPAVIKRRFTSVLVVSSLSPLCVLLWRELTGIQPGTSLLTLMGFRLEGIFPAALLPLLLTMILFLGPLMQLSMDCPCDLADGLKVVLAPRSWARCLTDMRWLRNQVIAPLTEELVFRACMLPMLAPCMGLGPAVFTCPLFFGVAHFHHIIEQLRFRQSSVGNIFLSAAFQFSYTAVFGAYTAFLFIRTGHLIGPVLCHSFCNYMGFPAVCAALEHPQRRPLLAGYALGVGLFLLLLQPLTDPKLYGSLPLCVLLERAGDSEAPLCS
# [9] = target: CAAX prenyl protease 1 (Saccharomyces cerevisiae S288c, UniProt P47154); assay: yeast CAAX protease Ste24 inhibition – biochemical, S. cerevisiae, plate reader, cherry-pick, dose response (AID 488815)
# CAAX prenyl protease 1, sequence (P47154 whole entry): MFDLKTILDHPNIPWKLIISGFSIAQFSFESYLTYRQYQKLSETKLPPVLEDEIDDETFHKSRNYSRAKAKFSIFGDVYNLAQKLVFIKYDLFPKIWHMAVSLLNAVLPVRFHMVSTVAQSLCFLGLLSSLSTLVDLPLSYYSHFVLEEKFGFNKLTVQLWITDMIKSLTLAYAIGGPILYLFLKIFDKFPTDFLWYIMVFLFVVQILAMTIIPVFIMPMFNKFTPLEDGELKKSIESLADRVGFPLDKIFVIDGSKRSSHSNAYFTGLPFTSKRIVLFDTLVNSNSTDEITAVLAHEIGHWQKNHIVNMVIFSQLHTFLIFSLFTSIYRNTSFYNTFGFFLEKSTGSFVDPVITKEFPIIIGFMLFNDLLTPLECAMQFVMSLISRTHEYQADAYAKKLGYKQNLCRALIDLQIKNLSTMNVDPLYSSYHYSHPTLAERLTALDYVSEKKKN
# [10] = target: T1, CAAX prenyl protease 2 (Saccharomyces cerevisiae S288c, UniProt Q03530); type: biochemical
# T1 sequence (Q03530 whole entry): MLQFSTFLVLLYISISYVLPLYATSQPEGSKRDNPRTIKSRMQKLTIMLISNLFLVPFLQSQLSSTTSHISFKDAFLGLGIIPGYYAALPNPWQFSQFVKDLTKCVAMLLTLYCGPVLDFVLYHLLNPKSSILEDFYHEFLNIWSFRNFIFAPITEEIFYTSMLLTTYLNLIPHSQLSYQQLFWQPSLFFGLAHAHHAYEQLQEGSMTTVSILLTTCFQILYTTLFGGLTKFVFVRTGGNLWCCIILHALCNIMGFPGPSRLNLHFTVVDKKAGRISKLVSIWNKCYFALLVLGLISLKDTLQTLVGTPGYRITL
# [11] = Luminescence Cell-Based Dose Response HTS to Identify Inhibitors of 5'UTR Stem-Loop Driven Prion Protein mRNA Translation in H4 Neuroglioblastoma Cells. [Related pubchem assays: 1827 (Project Summary), 1813 (Primary HTS)]; type: functional
# [12] = tested on: BJ; assay: BJ-TERT-LT-ST fibroblast viability loss – cell-based, RAS-independent, luminescence, dose response (AID 1935); type: functional; settings: Homo sapiens;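 also: BJ fibroblasts immortalized with TERT plus LT and ST oncogenes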
# [13] = target: Trypsin (Sus scrofa, UniProt P00761); assay: trypsin protease activity blockade – biochemical, quenched peptide fluorescence, cherry-pick, selectivity assay for Rce1 protease inhibitor project, dose response (AID 488789)
# Trypsin, sequence (P00761 whole entry): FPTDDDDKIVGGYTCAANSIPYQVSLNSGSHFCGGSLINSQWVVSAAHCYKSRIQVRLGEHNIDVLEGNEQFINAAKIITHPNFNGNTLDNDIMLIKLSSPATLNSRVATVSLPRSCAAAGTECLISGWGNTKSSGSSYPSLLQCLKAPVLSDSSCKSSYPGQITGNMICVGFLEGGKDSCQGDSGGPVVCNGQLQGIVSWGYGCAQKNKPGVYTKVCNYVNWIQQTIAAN
# [14] = tested on: BJ; assay: BJ-TERT fibroblast viability loss – cell-based, RAS-independent, luminescence, dose response (AID 1933); type: functional; settings: Homo sapiens
# [15] = target: Cyclin-dependent kinase 5/CDK5 activator 1 (Homo sapiens, UniProt Q00535); assay: blockade of human CDK5 activity – biochemical, cherry-picked samples, set 2, dose response (AID 504545)
# Cyclin-dependent kinase 5/CDK5 activator 1, sequence (Q00535 whole entry): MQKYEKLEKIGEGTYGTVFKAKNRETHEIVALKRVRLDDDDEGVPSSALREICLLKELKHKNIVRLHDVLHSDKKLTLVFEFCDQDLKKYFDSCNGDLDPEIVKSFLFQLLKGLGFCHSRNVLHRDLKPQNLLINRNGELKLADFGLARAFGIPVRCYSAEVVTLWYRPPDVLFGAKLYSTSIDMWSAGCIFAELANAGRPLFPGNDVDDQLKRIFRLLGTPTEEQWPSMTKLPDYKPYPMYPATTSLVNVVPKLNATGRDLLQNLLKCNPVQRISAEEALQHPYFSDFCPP
# Cyclin-dependent kinase 5/CDK5 activator 1, sequence (Q15078 whole entry, further chain): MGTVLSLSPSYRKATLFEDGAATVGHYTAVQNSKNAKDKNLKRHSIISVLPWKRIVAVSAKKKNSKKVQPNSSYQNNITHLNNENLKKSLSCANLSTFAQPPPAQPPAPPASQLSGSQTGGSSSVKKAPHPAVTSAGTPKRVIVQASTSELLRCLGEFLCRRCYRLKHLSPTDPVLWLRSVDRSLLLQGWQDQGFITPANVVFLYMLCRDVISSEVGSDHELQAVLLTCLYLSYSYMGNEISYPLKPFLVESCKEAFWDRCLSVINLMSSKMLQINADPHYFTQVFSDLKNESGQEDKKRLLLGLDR
# [16] = tested on: BJ; assay: cells; type: functional, cell-based; settings: Homo sapiens
# [17] = target: T2, RNA-binding protein pos-1 (Caenorhabditis elegans, UniProt G5EF15); assay: disruptors of C. elegans POS-1 RNA interaction – biochemical, fluorescence polarization, dose response (AID 1964);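 also: purified POS-1 fused to maltose binding protein made in E. coli; potency of compounds blocking POS-1 binding to fluorescent RNA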
# T2 sequence (G5EF15 whole entry): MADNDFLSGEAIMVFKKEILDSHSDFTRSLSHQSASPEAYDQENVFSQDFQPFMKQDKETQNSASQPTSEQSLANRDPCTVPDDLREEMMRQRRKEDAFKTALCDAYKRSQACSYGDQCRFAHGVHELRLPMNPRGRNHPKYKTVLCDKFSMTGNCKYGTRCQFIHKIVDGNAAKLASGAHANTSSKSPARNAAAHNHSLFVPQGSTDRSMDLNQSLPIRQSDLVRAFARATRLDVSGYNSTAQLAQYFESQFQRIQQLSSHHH
# [18] = target: T3, Zinc finger protein mex-5 (Caenorhabditis elegans, UniProt Q9XUB2); assay: potency of MEX-5 RNA-binding blockers – biochemical, C. elegans, fluorescence polarization, dose response (AID 1960)
# T3 sequence (Q9XUB2 whole entry): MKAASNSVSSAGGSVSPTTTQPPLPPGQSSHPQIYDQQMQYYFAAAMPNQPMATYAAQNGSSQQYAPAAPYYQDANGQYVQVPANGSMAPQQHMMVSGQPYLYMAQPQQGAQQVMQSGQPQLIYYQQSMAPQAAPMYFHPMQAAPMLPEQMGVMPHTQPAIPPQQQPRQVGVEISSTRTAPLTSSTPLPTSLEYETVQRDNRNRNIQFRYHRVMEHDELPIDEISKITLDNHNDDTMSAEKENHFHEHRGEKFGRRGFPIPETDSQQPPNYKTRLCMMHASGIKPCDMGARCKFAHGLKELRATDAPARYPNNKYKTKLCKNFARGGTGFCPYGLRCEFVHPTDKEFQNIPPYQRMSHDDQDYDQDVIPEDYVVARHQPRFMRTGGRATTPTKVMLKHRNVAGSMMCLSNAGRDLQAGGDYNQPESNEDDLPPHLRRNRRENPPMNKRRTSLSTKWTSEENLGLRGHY
# [19] = target: Neurotensin receptor type 1 (Homo sapiens, UniProt P30989); type: functional;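 also: Image-based confirmatory dose-response assay measuring agonist activity at NTR1; NTR1-expressing U2OS osteosarcoma cells imaged for beta-arrestin GFP spot formation; agonist potency where compounds increase beta-arrestin recruitment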
# Neurotensin receptor type 1, sequence (P30989 whole entry): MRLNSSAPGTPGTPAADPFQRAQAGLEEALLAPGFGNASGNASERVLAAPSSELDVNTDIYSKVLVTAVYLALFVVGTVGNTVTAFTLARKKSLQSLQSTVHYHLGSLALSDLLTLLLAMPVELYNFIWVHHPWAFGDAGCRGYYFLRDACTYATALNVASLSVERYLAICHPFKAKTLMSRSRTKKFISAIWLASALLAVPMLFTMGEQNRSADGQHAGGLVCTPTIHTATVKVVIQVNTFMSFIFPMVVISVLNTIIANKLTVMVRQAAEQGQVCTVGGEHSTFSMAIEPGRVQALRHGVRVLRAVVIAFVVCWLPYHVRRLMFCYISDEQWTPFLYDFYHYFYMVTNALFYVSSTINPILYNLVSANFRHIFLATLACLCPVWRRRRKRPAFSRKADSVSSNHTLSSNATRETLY
# [20] = Luminescence Cell-Based Dose Response HTS to Identify Activators of Luciferase Translation or Activity in H4-C Neuroglioblastoma Cells. [Related pubchem assays: 1829 (Project Summary), 1814 (Primary HTS)]; type: functional
# [21] = Luminescence Cell-Based Dose Confirmation HTS to Identify Activators of 5'UTR Stem-Loop Driven Alpha-Synuclein mRNA Translation in H4 Neuroglioblastoma Cells. [Related pubchem assays: 1829 (Project Summary), 1814 (Primary HTS)]; type: functional
# [22] = target: T4, Heat shock factor protein 1 (Mus musculus, UniProt P38532); assay: enhancement of HSF1-driven luciferase signal – cell-based, NIH3T3, luminescence, dose retest, confirmation (AID 435004); type: functional;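 also: stress induced by proteasome inhibitor MG132 added 30 min after compound; luciferase reporter driven by HSF1 response element in NIH3T3 cells; actives raise luminescence as potentiators of the MG132 stress response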
# T4 sequence (P38532 whole entry): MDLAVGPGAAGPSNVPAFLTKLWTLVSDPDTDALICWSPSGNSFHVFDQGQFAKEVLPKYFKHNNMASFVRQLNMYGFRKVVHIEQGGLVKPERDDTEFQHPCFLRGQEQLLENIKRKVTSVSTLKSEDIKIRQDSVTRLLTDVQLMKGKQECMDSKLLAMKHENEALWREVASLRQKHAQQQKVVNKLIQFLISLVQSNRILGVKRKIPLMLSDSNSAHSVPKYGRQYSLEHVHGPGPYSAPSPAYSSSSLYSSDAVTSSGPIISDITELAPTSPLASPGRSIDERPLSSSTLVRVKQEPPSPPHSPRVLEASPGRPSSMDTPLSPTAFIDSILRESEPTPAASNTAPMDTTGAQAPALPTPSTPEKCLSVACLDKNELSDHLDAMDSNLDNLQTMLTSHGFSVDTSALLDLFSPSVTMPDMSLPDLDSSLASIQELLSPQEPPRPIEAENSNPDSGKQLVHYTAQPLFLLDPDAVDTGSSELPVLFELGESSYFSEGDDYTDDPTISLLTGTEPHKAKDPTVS
# [23] = Luminescence Cell-Based Dose Response HTS to Identify Activators of Luciferase Translation or Activity in H4 […] Cells. [Related pubchem assays: 1829 (Project Summary), 1814 (Primary HTS)]; type: functional
# [24] = Luminescence Cell-Based Dose Response HTS to Identify Activators of 5'UTR Stem-Loop Driven Prion Protein mRNA Translation in H4-C Neuroglioblastoma Cells. [Related pubchem assays: 1829 (Project Summary), 1814 (Primary HTS)]; type: functional
# [25] = tested on: H4; assay: Luminescence Cell-Based Dose Response HTS to Identify Activators of 5'UTR Stem-Loop Driven Prion Protein mRNA Translation in H4 Neuroglioblastoma Cells. [Related pubchem assays: 1829 (Project Summary), 1814 (Primary HTS)]; type: functional; settings: Homo sapiens
# [26] = Luminescence Cell-Based Dose Retest to Confirm Activators of 5'UTR Stem-Loop Driven Alpha-Synuclein mRNA Translation in H4 Neuroglioblastoma Cells. [Related pubchem assays (depositor defined):AID1813, AID1829]; type: functional
# [27] = target: Scavenger receptor class B member 1 (Mus musculus, UniProt Q61009); assay: mouse SR-BI DiI-HDL uptake blockers – ldlA[mSR-BI] cells, fluorescence, cherry pick, dose response (AID 493194); type: functional, cell-based;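 also: cellular uptake of fluorescent DiI-labeled HDL measured as cell fluorescence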
# Scavenger receptor class B member 1, sequence (Q61009 whole entry): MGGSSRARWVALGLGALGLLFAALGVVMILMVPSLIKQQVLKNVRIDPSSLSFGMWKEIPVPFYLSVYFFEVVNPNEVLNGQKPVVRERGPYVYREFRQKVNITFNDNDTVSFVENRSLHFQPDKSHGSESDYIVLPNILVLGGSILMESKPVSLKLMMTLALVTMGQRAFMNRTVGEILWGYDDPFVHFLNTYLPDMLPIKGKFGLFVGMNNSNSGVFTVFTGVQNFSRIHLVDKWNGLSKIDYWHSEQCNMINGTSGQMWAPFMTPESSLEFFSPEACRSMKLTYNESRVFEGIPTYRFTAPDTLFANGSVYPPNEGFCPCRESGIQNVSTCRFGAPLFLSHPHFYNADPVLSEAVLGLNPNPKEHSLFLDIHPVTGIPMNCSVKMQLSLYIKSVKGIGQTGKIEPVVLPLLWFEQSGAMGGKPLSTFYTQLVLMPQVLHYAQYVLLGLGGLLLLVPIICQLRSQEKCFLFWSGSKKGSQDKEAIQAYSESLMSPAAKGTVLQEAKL
# [28] = target: Metabotropic glutamate receptor 4 (Rattus norvegicus, UniProt P31423); assay: Modulation of the Metabotropic Glutamate Receptor mGluR4: Rat PAM Potency. [Related pubchem assays (depositor defined):AID2437, AID2807]; type: functional
# Metabotropic glutamate receptor 4 (Rattus norvegicus, UniProt P31423), sequence (P31423 whole entry): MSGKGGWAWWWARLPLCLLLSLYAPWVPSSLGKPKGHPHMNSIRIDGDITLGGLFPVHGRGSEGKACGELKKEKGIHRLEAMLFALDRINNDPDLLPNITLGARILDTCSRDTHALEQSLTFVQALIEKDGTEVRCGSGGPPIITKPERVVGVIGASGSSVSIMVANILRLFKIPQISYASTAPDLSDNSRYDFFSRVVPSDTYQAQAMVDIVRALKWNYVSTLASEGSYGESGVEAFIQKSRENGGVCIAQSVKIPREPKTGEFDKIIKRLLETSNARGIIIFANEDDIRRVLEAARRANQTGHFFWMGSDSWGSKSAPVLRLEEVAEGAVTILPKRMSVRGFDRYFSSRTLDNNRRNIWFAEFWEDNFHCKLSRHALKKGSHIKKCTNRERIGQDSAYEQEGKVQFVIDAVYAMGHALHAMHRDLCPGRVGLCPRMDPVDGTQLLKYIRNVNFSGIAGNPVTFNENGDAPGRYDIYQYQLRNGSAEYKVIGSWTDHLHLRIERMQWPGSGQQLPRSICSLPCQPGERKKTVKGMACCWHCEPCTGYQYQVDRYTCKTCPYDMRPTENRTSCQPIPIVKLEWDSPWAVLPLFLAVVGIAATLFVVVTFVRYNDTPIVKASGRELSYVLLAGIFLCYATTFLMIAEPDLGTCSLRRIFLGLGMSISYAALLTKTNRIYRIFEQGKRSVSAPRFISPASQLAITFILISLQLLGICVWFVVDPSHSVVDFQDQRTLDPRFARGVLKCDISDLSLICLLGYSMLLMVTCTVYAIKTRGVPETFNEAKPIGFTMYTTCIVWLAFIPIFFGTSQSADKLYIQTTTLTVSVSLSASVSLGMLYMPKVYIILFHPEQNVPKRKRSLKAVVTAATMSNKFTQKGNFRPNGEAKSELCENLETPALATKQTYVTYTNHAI
# [29] = target: Metabotropic glutamate receptor 4 (Homo sapiens, UniProt Q14833); assay: Modulation of the Metabotropic Glutamate Receptor mGluR4: Potency at human mGluR4. Modulation of intracellular Ca2+ using Fluo-4, AM, in CHO expressing recombinant receptor [Related pubchem assays (depositor defined):AID2437, AID2807]; type: functional, cell-based
# Metabotropic glutamate receptor 4 (Homo sapiens, UniProt Q14833), sequence (Q14833 whole entry): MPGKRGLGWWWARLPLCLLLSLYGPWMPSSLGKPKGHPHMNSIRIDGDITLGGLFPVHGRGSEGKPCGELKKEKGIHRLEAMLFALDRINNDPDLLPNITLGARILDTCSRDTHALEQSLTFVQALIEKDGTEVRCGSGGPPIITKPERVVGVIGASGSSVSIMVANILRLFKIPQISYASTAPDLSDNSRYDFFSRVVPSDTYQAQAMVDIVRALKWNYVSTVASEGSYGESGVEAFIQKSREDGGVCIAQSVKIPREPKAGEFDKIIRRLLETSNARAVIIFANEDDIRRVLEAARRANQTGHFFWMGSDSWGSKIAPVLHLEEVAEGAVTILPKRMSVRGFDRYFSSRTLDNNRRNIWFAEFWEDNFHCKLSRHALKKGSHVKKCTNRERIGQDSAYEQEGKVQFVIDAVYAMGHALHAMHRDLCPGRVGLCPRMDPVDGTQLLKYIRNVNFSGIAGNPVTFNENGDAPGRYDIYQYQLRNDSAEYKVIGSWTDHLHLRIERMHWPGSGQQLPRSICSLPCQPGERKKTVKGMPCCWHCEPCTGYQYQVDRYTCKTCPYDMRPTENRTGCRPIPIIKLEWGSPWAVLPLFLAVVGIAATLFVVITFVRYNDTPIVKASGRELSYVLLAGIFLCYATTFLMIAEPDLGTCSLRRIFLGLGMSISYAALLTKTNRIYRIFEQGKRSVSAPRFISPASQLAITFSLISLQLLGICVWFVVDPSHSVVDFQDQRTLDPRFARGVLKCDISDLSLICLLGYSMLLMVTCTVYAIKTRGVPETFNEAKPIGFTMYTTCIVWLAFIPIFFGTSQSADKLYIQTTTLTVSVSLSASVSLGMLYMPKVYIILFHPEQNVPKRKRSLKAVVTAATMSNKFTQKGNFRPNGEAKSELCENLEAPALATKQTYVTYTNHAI
structure (smiles),measurement,setting,value
O=C(Nc1nnc(/C=C/c2ccccc2)s1)c1ccco1,IC50,[1],> 75 µM (active)
Cc1ccc2nc(-c3ccccc3)cn2c1,EC50,[2],7.45 µM (active)
same,EC50,[3],1.58 µM (active)
same,EC50,[4],0.717 µM (active)
same,EC50,[5],2.18 µM (active)
same,AC50,[6],59.3 µM (active)
same,EC50,[7],1.32 µM (active)
same,AC50,[8],> 100 µM (inactive)
same,AC50,[9],7.44 µM (active)
same,AC50,[10],> 100 µM (inactive)
same,EC50,[11],8.72 µM (active)
same,EC50,[12],> 150 µM (inconclusive)
same,AC50,[13],59.9 µM (active)
same,EC50,[14],9.54 µM (active)
same,AC50,[15],18.6 µM (active)
same,EC50,[16],9.05 µM (active)
O=C1NC(=O)C(=Cc2cn(CCOc3ccc4c(c3)OCO4)c3ccccc23)C(=O)N1,EC50,[17],16.7 µM (active)
same,EC50,[18],11.9 µM (active)
same,EC50,[19],4.12 µM (active)
Cc1cccc(NCc2nc3ccccc3n2C)c1,EC50,[20],1.63 µM (active)
same,EC50,[21],0.296 µM (active)
same,EC50,[22],201 µM (active)
same,EC50,[23],> 120 µM (not active)
same,EC50,[24],3.39 µM (active)
same,EC50,[25],8.1 µM (active)
same,EC50,[26],0.752 µM (active)
CCc1sc(N2C(=O)C3C4CCC(C4=C(C)C)C3C2=O)nc1-c1ccccc1 (centres undefined),AC50,[27],0.635 µM (active)
O=C(Nc1ccc(N2C(=O)[C@@H]3[C@H](C2=O)[C@@H]2CC[C@H]3O2)c(Cl)c1)c1ccccn1,EC50,[28],2.29 µM (active)
same,EC50,[29],1.44 µM (active)
